Reference: PMC4004260 (Biochemistry, 2014)

Experiments:
[1] = test system: gpASNase3 (guinea pig L-asparaginase type III); experiment: NADH-coupled spectrophotometric assay; assay type: biochemical, Cavia porcellus; conditions: glycine-activated (cleaved) enzyme; Tris pH 7.5, 37 °C
[2] = biological target: cleaved gpASNase3 protomer (α- and β-subunit), Asp-bound (Cavia porcellus (guinea pig)); experiment: crystal structure

Row | Molecule | Km [1] [mM] | stoichiometry N [2]
1 | NC(=O)C[C@H](N)C(=O)O [L-Asn] | 2.24 ± 0.14 | –
2 | N[C@@H](CC(=O)N[C@@H](Cc1ccccc1)C(=O)O)C(=O)O [β-L-Asp-L-Phe] | 0.41 ± 0.03 | –
3 | cleaved gpASNase3 protomer (α- and β-subunit), Asp-bound (complex) | – | 2
